# Source: ChEMBL document CHEMBL1201862, “PubChem BioAssay data set” (2004)
#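 In this assay, cells in 96-well plates receive the compound at five concentrations for 48 hours. Endpoints are linearly interpolated between the surrounding concentrations. GI50 = concentration required for 50% inhibition of growth.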 Activity calls are given as the source filed them. Rule as the data show it: active = GI50 up to about 1.1 µM and inactive = higher.
# Assays:
# Test in all cases: NCI anticancer screen, dose series, 48 h
# HOP-18 = test system: HOP-18
# SNB-78 = test system: SNB-78
# SF-295 = test system: SF-295
# HOP-92 = test system: HOP-92
# XF498 = test system: XF498
# M14 = test system: M14
# HT-29 = test system: HT-29
# DMS-273 = test system: DMS-273
# NCI-H460 = test system: NCI-H460
# SK-MEL-2 = test system: SK-MEL-2
# LXFL 529 = test system: LXFL 529
# CCRF-CEM = test system: CCRF-CEM
# OVCAR-4 = test system: OVCAR-4
# SN12C = test system: SN12C
# SF-539 = test system: SF-539
# TK-10 = test system: TK-10
# HL-60 = test system: HL-60
# HCC 2998 = test system: HCC 2998
# COLO 205 = test system: COLO 205
# Malme-3M = test system: Malme-3M
# IGROV-1 = test system: IGROV-1
# K562 = test system: K562
# OVCAR-8 = test system: OVCAR-8
# KM12 = test system: KM12
# SK-OV-3 = test system: SK-OV-3
# OVCAR-5 = test system: OVCAR-5
# NCI-H23 = test system: NCI-H23
# SNB-75 = test system: SNB-75
# OVCAR-3 = test system: OVCAR-3
# SK-MEL-28 = test system: SK-MEL-28
# ACHN = test system: ACHN
# DLD-1 = test system: DLD-1
# MOLT-4 = test system: MOLT-4
# SF-268 = test system: SF-268
# U-251 = test system: U-251
# RPMI-8226 = test system: RPMI-8226
# HCT-116 = test system: HCT-116
# 786-0 = test system: 786-0
# UO-31 = test system: UO-31
# M19-MEL = test system: M19-MEL
# UACC-257 = test system: UACC-257
# HCT-15 = test system: HCT-15
# NCI-H226 = test system: NCI-H226
# A549 = test system: A549
# SNB-19 = test system: SNB-19
# HOP-62 = test system: HOP-62
# UACC-62 = test system: UACC-62
# EKVX = test system: EKVX
# LOX IMVI = test system: LOX IMVI
# SW-620 = test system: SW-620
# KM-20L2 = test system: KM-20L2
# DMS-114 = test system: DMS-114
# RXF 393 = test system: RXF 393
# SK-MEL-5 = test system: SK-MEL-5
# A498 = test system: A498
# CAKI-1 = test system: CAKI-1
# NCI-H522 = test system: NCI-H522
compound,measurement,setting,value
CSC1(C)CC2C(CC1N1CCCCC1)C2(C)C (stereo not given),GI50,HOP-18,> 100 µM (inactive)
same,GI50,SNB-78,> 100 µM (inactive)
same,GI50,SF-295,> 100 µM (inactive)
same,GI50,HOP-92,> 100 µM (inactive)
same,GI50,XF498,> 100 µM (inactive)
same,GI50,M14,> 100 µM (inactive)
same,GI50,HT-29,> 100 µM (inactive)
same,GI50,DMS-273,> 100 µM (inactive)
same,GI50,NCI-H460,> 100 µM (inactive)
same,GI50,SK-MEL-2,> 100 µM (inactive)
same,GI50,LXFL 529,> 100 µM (inactive)
same,GI50,CCRF-CEM,> 100 µM (inactive)
same,GI50,OVCAR-4,> 100 µM (inactive)
same,GI50,SN12C,> 100 µM (inactive)
same,GI50,SF-539,> 100 µM (inactive)
same,GI50,TK-10,> 100 µM (inactive)
same,GI50,HL-60,> 100 µM (inactive)
same,GI50,HCC 2998,> 100 µM (inactive)
same,GI50,COLO 205,> 100 µM (inactive)
same,GI50,Malme-3M,> 100 µM (inactive)
same,GI50,IGROV-1,> 100 µM (inactive)
same,GI50,K562,> 100 µM (inactive)
same,GI50,OVCAR-8,> 100 µM (inactive)
same,GI50,KM12,> 100 µM (inactive)
same,GI50,SK-OV-3,> 100 µM (inactive)
same,GI50,OVCAR-5,> 100 µM (inactive)
same,GI50,NCI-H23,> 100 µM (inactive)
same,GI50,SNB-75,> 100 µM (inactive)
same,GI50,OVCAR-3,> 100 µM (inactive)
same,GI50,SK-MEL-28,> 100 µM (inactive)
same,GI50,ACHN,> 100 µM (inactive)
same,GI50,DLD-1,> 100 µM (inactive)
same,GI50,MOLT-4,> 100 µM (inactive)
same,GI50,SF-268,> 100 µM (inactive)
same,GI50,U-251,> 100 µM (inactive)
same,GI50,RPMI-8226,> 100 µM (inactive)
same,GI50,HCT-116,> 100 µM (inactive)
same,GI50,786-0,> 100 µM (inactive)
same,GI50,UO-31,> 100 µM (inactive)
same,GI50,M19-MEL,> 100 µM (inactive)
same,GI50,UACC-257,> 100 µM (inactive)
same,GI50,HCT-15,> 100 µM
same,GI50,NCI-H226,> 100 µM (inactive)
same,GI50,A549,> 100 µM (inactive)
CCO/N=C(/N)c1ncn(Cc2ccccc2)c1NCC(OCC)OCC,GI50,SNB-19,> 100 µM (inactive)
same,GI50,SNB-78,> 100 µM (inactive)
same,GI50,SF-295,> 100 µM (inactive)
same,GI50,XF498,29.7 µM (inactive)
same,GI50,M14,> 100 µM (inactive)
same,GI50,HT-29,> 100 µM (inactive)
same,GI50,DMS-273,> 100 µM (inactive)
same,GI50,NCI-H460,> 100 µM (inactive)
same,GI50,SK-MEL-2,> 100 µM (inactive)
same,GI50,LXFL 529,> 100 µM (inactive)
same,GI50,CCRF-CEM,> 100 µM (inactive)
same,GI50,SN12C,> 100 µM (inactive)
same,GI50,SF-539,> 100 µM (inactive)
same,GI50,TK-10,> 100 µM (inactive)
same,GI50,HOP-62,> 100 µM (inactive)
same,GI50,HCC 2998,> 100 µM (inactive)
same,GI50,COLO 205,> 100 µM (inactive)
same,GI50,UACC-62,> 100 µM (inactive)
same,GI50,Malme-3M,> 100 µM (inactive)
same,GI50,IGROV-1,> 100 µM (inactive)
same,GI50,K562,> 100 µM (inactive)
same,GI50,OVCAR-8,> 100 µM (inactive)
same,GI50,EKVX,> 100 µM (inactive)
same,GI50,KM12,> 100 µM (inactive)
same,GI50,SK-OV-3,> 100 µM (inactive)
same,GI50,LOX IMVI,> 100 µM (inactive)
same,GI50,OVCAR-5,> 100 µM (inactive)
same,GI50,SW-620,> 100 µM (inactive)
same,GI50,SNB-75,> 100 µM (inactive)
same,GI50,OVCAR-3,> 100 µM (inactive)
same,GI50,KM-20L2,> 100 µM (inactive)
same,GI50,ACHN,> 100 µM (inactive)
same,GI50,DLD-1,> 100 µM (inactive)
same,GI50,DMS-114,> 100 µM (inactive)
same,GI50,MOLT-4,> 100 µM (inactive)
same,GI50,SF-268,> 100 µM (inactive)
same,GI50,U-251,> 100 µM (inactive)
same,GI50,RPMI-8226,> 100 µM (inactive)
same,GI50,RXF 393,29.2 µM (inactive)
same,GI50,HCT-116,> 100 µM (inactive)
same,GI50,786-0,> 100 µM (inactive)
same,GI50,UO-31,> 100 µM (inactive)
same,GI50,M19-MEL,> 100 µM (inactive)
same,GI50,UACC-257,> 100 µM (inactive)
same,GI50,SK-MEL-5,> 100 µM (inactive)
same,GI50,HCT-15,> 100 µM
same,GI50,A498,> 100 µM (inactive)
same,GI50,NCI-H226,> 100 µM (inactive)
same,GI50,CAKI-1,> 100 µM (inactive)
same,GI50,A549,> 100 µM (inactive)
same,GI50,NCI-H522,> 100 µM (inactive)
